Measured values as given in patent publication US20070117804A1, “Imidazopyrazines as protein kinase inhibitors” (Schering Corporation, priority 2005, published 2007).
pIC50: −log10 of the molar value.

Key:
Cyclin E/CDK2 = biological target: T1, Cyclin E/CDK2 (Homo sapiens, UniProt P24941); assay: CDK2 assay (Cyclin E/CDK2 in vitro kinase SPA assay, biotinylated Histone H1 peptide); type: biochemical; conditions: read-out: CDK2 IC 50
T1 construct: made in house; host or cells: SF9 insect cells, baculovirus co-infection

His-CHK1 = biological target: T2, His-CHK1 (Homo sapiens, UniProt O14757); assay: CHK1 SPA assay (recombinant His-CHK1, biotinylated CDC25C peptide, 33P-ATP)
T2 sequence (O14757 1-265 limits assumed): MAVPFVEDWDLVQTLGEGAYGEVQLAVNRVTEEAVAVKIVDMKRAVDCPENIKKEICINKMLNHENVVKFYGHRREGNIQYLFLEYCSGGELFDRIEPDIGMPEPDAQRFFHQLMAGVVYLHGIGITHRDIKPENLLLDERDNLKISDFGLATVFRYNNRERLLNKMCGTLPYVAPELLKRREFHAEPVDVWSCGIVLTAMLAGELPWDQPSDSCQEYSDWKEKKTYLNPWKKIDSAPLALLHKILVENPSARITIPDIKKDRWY

| SMILES | pIC50 (Cyclin E/CDK2) | pIC50 (His-CHK1) |
| --- | --- | --- |
| Cn1cc(-c2cnc3c(Nc4ccns4)nc(CCN)cn23)cn1 | 6.26 | 7.77 |
| CCN(CC)S(=O)(=O)c1sc(Nc2nc(C3=CCCNC3)cn3c(-c4cnn(C)c4)cnc23)cc1C | 5.08 |  |
| Cc1cc(Nc2nc(C3=CCCNC3)cn3c(-c4cnn(C)c4)cnc23)sc1S(=O)(=O)N1CCOCC1 | 5.16 |  |
